In PubChem BioAssay (NCI):
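Following 48 hours of exposure in 96-well plates, responses at five concentrations were used to interpolate endpoints linearly. At the GI50, growth is halved. TGI is the concentration that stops growth completely.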

Columns and labels:
Assay in all cases: growth of human tumour cells (NCI), 48 h
NCI-H23 lung = test system: NCI-H23 lung
UACC-257 melanoma = test system: UACC-257 melanoma
NCI/ADR-RES ovarian = test system: NCI/ADR-RES ovarian
SF-268 CNS = test system: SF-268 CNS
PC-3 prostate = test system: PC-3 prostate
HS 578T breast = test system: HS 578T breast
SF-539 CNS = test system: SF-539 CNS
OVCAR-4 ovarian = test system: OVCAR-4 ovarian
SK-MEL-28 melanoma = test system: SK-MEL-28 melanoma
CAKI-1 renal = test system: CAKI-1 renal

| SMILES | GI50 (NCI-H23 lung) | TGI (NCI-H23 lung) | GI50 (UACC-257 melanoma) | TGI (UACC-257 melanoma) | GI50 (NCI/ADR-RES ovarian) | TGI (NCI/ADR-RES ovarian) | GI50 (SF-268 CNS) | TGI (SF-268 CNS) | GI50 (PC-3 prostate) | TGI (PC-3 prostate) | GI50 (HS 578T breast) | TGI (HS 578T breast) | GI50 (SF-539 CNS) | TGI (SF-539 CNS) | GI50 (OVCAR-4 ovarian) | TGI (OVCAR-4 ovarian) | GI50 (SK-MEL-28 melanoma) | TGI (SK-MEL-28 melanoma) | GI50 (CAKI-1 renal) | TGI (CAKI-1 renal) |
| --- | --- | --- | --- | --- | --- | --- | --- | --- | --- | --- | --- | --- | --- | --- | --- | --- | --- | --- | --- | --- |
| Nc1ccccc1C#C/C=C\C#Cc1cccc(O)c1 | 2.44 µM | 9.38 µM | 10.2 µM | 23.4 µM | 2.39 µM | 10.3 µM | 7.93 µM | 44.5 µM | 6.5 µM | 42.7 µM | 3.39 µM | 22.8 µM | 2.5 µM | 11.5 µM | 6.68 µM | > 84.8 µM | 8.97 µM | 31.9 µM | 8.08 µM | 36.2 µM |
| Cn1cccc1-c1cc(-c2ccc(Br)cc2)[nH]c(=O)c1C#N | > 100 µM | > 100 µM | > 100 µM | > 100 µM | > 100 µM | > 100 µM | > 100 µM | > 100 µM | > 100 µM | > 100 µM | > 100 µM | > 100 µM | 89.3 µM | > 100 µM | > 100 µM | > 100 µM | > 100 µM | > 100 µM | > 100 µM | > 100 µM |
| COc1ccc(N(/C=C/C(=O)C(F)(F)F)CC(=O)c2ccc(F)cc2)cc1 | 30.1 µM | 84.9 µM | 23.7 µM | 64.8 µM | 31.2 µM | 87.4 µM | 20.3 µM | 45.2 µM | 23.1 µM | 85.7 µM | 27.8 µM | 89.1 µM | 21.4 µM | 52 µM | 45.3 µM | > 100 µM | 41.1 µM | > 100 µM | 21.7 µM | 72.1 µM |
| CCC[CH2][Sn]1([CH2]CCC)[O]C2C(CO)OC(n3ccc(N)nc3=O)C2[O]1 (centres undefined) | 1.35 µM | 3.08 µM | 1.28 µM | 2.61 µM | 2.01 µM | 4.37 µM | 1.08 µM | 2.47 µM | 1.66 µM | 3.26 µM | 1.29 µM | 4.14 µM | 1.41 µM | 2.72 µM | 1.33 µM | 2.68 µM | 1.29 µM | 2.66 µM | 1.19 µM | 2.53 µM |
| CN(C)CC1CCC2=C(C1=O)C(c1ccc(Cl)c(Cl)c1)C1=C(CCC(CN(C)C)C1=O)O2 (centres undefined) | 3.6 µM | 11.9 µM | 5.14 µM | 10.8 µM | 19.4 µM | 57.4 µM | 15.6 µM | 29.5 µM |  | 19.9 µM | 15.6 µM | 36.2 µM | 6.01 µM | 18.2 µM | 15.4 µM | 29.9 µM | 17.6 µM | 34.6 µM | 1.58 µM | 3.03 µM |
| Nc1ncnc2c1c(-c1ccc(Oc3ccccc3)cc1)nn2C[C@@H]1SSC[C@H]1O | 0.916 µM | 8.17 µM | 1.44 µM | 7.56 µM | 2.96 µM | 14 µM | 0.199 µM | 15.1 µM | 3.23 µM | 15.5 µM | 2.96 µM | 11.2 µM | 1.02 µM | 8.02 µM | 2.12 µM | > 83.4 µM | 0.084 µM | 12 µM | 2.18 µM | 10.5 µM |
| N#CSCc1ccc(Cl)c(CSC#N)c1 | 0.913 µM | 44.5 µM | 15 µM | 50.2 µM | 1.9 µM | > 60.9 µM | 0.298 µM | 37.4 µM | 1.35 µM | 27.1 µM | 3.16 µM | 97.9 µM | 0.117 µM | 16.6 µM | 0.659 µM | 19.4 µM | 3.58 µM | 22.4 µM | 0.169 µM | 21.7 µM |
